Experimental data as given in publication PMC8670039, “Flavonoids kaempferol and quercetin are nuclear receptor 4A1 (NR4A1, Nur77) ligands and inhibit rhabdomyosarcoma cell and tumor growth” (Journal of Experimental & Clinical Cancer Research : CR, 2021).
pKd: −log10 of the molar value.

Biological target: nuclear receptor 4A1 (NR4A1, Nur77) (Homo sapiens, UniProt P22736)
Assay: Trp fluorescence quenching direct binding; also bis-ANS competitive displacement (Ki […])

nuclear receptor 4A1 (NR4A1, Nur77), sequence (P22736 351-598 limits assumed): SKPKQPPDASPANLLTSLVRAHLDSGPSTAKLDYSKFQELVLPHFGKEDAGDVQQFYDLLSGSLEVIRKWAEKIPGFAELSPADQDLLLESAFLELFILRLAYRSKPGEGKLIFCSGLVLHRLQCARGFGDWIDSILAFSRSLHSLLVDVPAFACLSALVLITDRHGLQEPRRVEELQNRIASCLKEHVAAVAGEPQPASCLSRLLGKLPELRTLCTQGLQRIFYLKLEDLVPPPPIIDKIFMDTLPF

## O=c1c(O)c(-c2ccc(O)c(O)c2)oc2cc(O)cc(O)c12 [Q, quercetin]
  pKd: 6.03
